Like-named read-outs stand apart in the source and are kept apart here.
Key:
[1] = molecular target: HCV NS3/4A protease genotype 1b (Hepatitis C virus genotype 1b, UniProt P26663); test: HCV NS3/4A protease time-resolved fluorescence (TRF) assay, Ki against genotype 1b; format: biochemical
Method in brief: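 Ki values come from IC50 fits corrected for substrate concentration and KM. The time-resolved fluorescence protease reaction used 25 nM peptide substrate, 2.5 h, room temperature, pH 7.5 HEPES buffer, after 30 min enzyme–inhibitor preincubation.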

HCV genotype 1b replicon = test: HCV replicon assay, genotype 1b replicon EC50; format: cell-based, Hepatitis C virus; settings: Hepatitis C virus, read-out: EC50 [gt-1b]
Method in brief: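 Readout was replicon RNA copy number, by 32P-probe protection or TaqMan normalized to cellular cyclophilin A RNA, or luciferase activity for luciferase:Neo^r fusion lines. Cells were exposed to serially diluted compound for 24-48 hours without G418, then washed and lysed. EC50 derived from four-parameter fit relative to DMSO.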

[2] = IC50 [gt-1b], NS3/4A protease TRF assay, genotype 1b enzyme 0.2 nM
[3] = IC50 [gt-1b] (nM), NS3/4A genotype 1b, enzyme 0.2 nM
[4] = IC50 [gt-1b] (nM), NS3/4A genotype 1b, enzyme 0.2 nM, K+ salt

HCV NS3/4A protease genotype 1b, sequence (P26663 1027-1657): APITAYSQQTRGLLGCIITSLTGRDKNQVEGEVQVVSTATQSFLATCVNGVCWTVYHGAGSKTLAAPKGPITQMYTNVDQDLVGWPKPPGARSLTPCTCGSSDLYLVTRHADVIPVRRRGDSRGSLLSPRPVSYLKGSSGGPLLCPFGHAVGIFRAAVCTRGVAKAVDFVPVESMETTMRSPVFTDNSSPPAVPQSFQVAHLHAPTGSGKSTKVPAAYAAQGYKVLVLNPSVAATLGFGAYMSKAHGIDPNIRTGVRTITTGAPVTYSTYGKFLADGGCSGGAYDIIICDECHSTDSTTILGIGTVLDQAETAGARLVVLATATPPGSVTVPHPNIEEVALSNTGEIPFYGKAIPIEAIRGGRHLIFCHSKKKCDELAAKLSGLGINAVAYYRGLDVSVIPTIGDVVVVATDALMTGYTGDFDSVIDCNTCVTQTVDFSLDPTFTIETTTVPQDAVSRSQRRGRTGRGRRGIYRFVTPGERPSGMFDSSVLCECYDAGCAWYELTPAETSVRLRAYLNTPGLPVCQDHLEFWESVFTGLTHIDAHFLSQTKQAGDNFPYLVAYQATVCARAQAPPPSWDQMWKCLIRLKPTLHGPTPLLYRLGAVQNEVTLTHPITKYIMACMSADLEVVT
HCV NS3/4A protease genotype 1b, sequence (P26663 1658-1711): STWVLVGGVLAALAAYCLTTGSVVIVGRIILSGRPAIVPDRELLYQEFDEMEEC

COc1ccc2nc(C)c3c(c2c1)[C@H](F)C[C@]1(C[C@H]2C(=O)N[C@]4(C(=O)NS(=O)(=O)C5(C)CC5)C[C@H]4/C=C\CCCCC[C@H](NC(=O)OC(C)C(C)(C)C)C(=O)N2C1)O3 (stereo partly drawn) [Example 404, 3,3-dimethylbutan-2-yl [(l′R,2S,6S,12Z,13aS,14aR,16aS)-1′-fluoro-9′-methoxy-5′-methyl-14a-{[(1-methylcyclopropyl)sulfonyl]carbamoyl}-5,16-dioxo-1,1′,2′,5,6,7,8,9,10,11,13a,14,14a,15,16,16a-hexadecahydrospiro[cyclopropa[e]pyrrolo[1,2-a][1,4]diazacyclopentadecine-2,3′-pyrano[2,3-c]quinolin]-6-yl]carbamate]
IC50 [1, 2]: 0.018 nM
EC50 (HCV genotype 1b replicon; HCV replicon, genotype 1b): 1.23 nM

Cc1nc2ccccc2c2c1O[C@]1(CC2)C[C@H]2C(=O)N[C@]3(C(=O)NS(=O)(=O)C4(C)CC4)C[C@H]3/C=C\CCCCC[C@H](NC(=O)OCC(F)(F)F)C(=O)N2C1 [Example 129, 2,2,2-trifluoroethyl [(2R,6S,12Z,13aS,14aR,16aS)-5′-methyl-14a-{[(1-methylcyclopropyl)sulfonyl]carbamoyl}-5,16-dioxo-1,1′,2′,5,6,7,8,9,10,11,13a,14,14a,15,16,16a-hexadecahydrospiro[cyclopropa[e]pyrrolo[1,2-a][1,4]diazacyclopentadecine-2,3′-pyrano[2,3-c]quinolin]-6-yl]carbamate]
IC50 [1, 3]: 0.011 nM
EC50 (HCV genotype 1b replicon; genotype 1b replicon): 2.11 nM

COC(=O)N[C@H]1CCCCC/C=C\[C@@H]2C[C@@]2(C(=O)NS(=O)(=O)C2(C)CC2)NC(=O)[C@@H]2C[C@]3(CCc4c(c(C5CC5)nc5cc(OC)ccc45)O3)CN2C1=O [Example 139, methyl [(2R,6S,12Z,13aS,14aR,16aS)-5′-cyclopropyl-8′-methoxy-14a-{[(1-methylcyclopropyl)sulfonyl]carbamoyl}-5,16-dioxo-1,1′,2′,5,6,7,8,9,10,11,13a,14,14a,15,16,16a-hexadecahydrospiro[cyclopropa[e]pyrrolo[1,2-a][1,4]diazacyclopentadecine-2,3′-pyrano[2,3-c]quinolin]-6-yl]carbamate]
IC50 [1, 3]: 0.127 nM
EC50 (HCV genotype 1b replicon; genotype 1b replicon): 8.09 nM

Cc1nc2ccc(C#N)cc2c2c1O[C@]1(CC2)C[C@H]2C(=O)N[C@]3(C(=O)NS(=O)(=O)C4(C)CC4)C[C@H]3/C=C\CCCCC[C@H](NC(=O)OC(C)(C)C)C(=O)N2C1 [Example 59, tert-Butyl ((2R,6S,13aS,14aR,16aS,Z)-9′-cyano-5′-methyl-14a-(((1-methylcyclopropyl)sulfonyl)carbamoyl)-5,16-dioxo-1′,2′,3,5,6,7,8,9,10,11,13a,14,14a,15,16,16a-hexadecahydro-1H-spiro[cyclopropa[e]pyrrolo[1,2-a][1,4]diazacyclopentadecine-2,3′-pyrano[2,3-c]quinolin]-6-yl)carbamate]
IC50 [1, 3]: 0.019 nM
EC50 (HCV genotype 1b replicon; genotype 1b replicon): 3.45 nM

COc1ccc2nc(C3CC3)c3c(c2c1)[C@H](F)C[C@]1(C[C@H]2C(=O)N[C@]4(C(=O)NS(=O)(=O)C5(C)CC5)C[C@H]4/C=C\CCCCC[C@H](NC(=O)O[C@H](C)C(C)C)C(=O)N2C1)O3 [Example 457, (2R)-3-methylbutan-2-yl [(1′R,2S,6S,12Z,13aS,14aR,16aS)-5′-cyclopropyl-1′-fluoro-9′-methoxy-14a-{[(1-methylcyclopropyl)sulfonyl]carbamoyl}-5,16-dioxo-1,1′,2′,5,6,7,8,9,10,11,13a,14,14a,15,16,16a-hexadecahydrospiro[cyclopropa[e]pyrrolo[1,2-a][1,4]diazacyclopentadecine-2,3′-pyrano[2,3-c]quinolin]-6-yl]carbamate]
IC50 ([1]; IC50 [gt-1b], NS3/4A protease TRF assay, genotype 1b enzyme 0.2 nM, K+ salt): 0.068 nM
EC50 (HCV genotype 1b replicon; HCV replicon, genotype 1b, K+ salt): 1.17 nM

COc1ccc2nc(C(F)(F)F)c3c(c2c1)CC[C@]1(C[C@H]2C(=O)N[C@]4(C(=O)NS(=O)(=O)C5(C)CC5)C[C@H]4/C=C\CCCCC[C@H](NC(=O)O[C@@H](C)C(C)C)C(=O)N2C1)O3 [Example 351, (2S)-3-methylbutan-2-yl [(2R,6S,12Z,13aS,14aR,16aS)-9′-methoxy-14a-{[(1-methylcyclopropyl)sulfonyl]carbamoyl}-5,16-dioxo-5′-(trifluoromethyl)-1,1′,2′,5,6,7,8,9,10,11,13a,14,14a,15,16,16a-hexadecahydrospiro[cyclopropa[e]pyrrolo[1,2-a][1,4]diazacyclopentadecine-2,3′-pyrano[2,3-c]quinolin]-6-yl]carbamate]
IC50 [1, 4]: 0.029 nM
EC50 (HCV genotype 1b replicon; genotype 1b replicon, K+ salt): 2.19 nM

Cc1nc2ccccc2c2c1O[C@]1(C=C2)C[C@H]2C(=O)N[C@]3(C(=O)NS(=O)(=O)C4CC4)C[C@H]3/C=C\CCCCC[C@H](NC(=O)OC(C)(C)C)C(=O)N2C1 [Example 26, tert-Butyl (2S,6S,13aS,14aR,16aS,Z)-14a-(cyclopropylsulfonylcarbamoyl)-5′-methyl-5,16-dioxo-3,5,6,7,8,9,10,11,13a,14,14a,15,16,16a-tetradecahydro-1H-spiro [cyclopropa[e]pyrrolo[1,2-a][1,4]diazacyclopentadecine-2,3′-pyrano[2,3-c]quinoline-]-6-ylcarbamate]
IC50 [1, 3]: 0.013 nM
EC50 (HCV genotype 1b replicon; genotype 1b replicon): 1.34 nM

Cc1nc2ccc(OC(F)(F)F)cc2c2c1O[C@]1(CC2)C[C@H]2C(=O)N[C@]3(C(=O)NS(=O)(=O)C4(C)CC4)C[C@H]3/C=C\CCCCC[C@H](NC(=O)N3CCCC3)C(=O)N2C1 [Example 246, (2R,6S,12Z,13aS,14aR,16aS)-5′-methyl-N-[(1-methylcyclopropyl)sulfonyl]-5,16-dioxo-6-[(pyrrolidin-1-ylcarbonyl)amino]-9′-(trifluoromethoxy)-1,1′,2′,6,7,8,9,10,11,13a,14,15,16,16a-tetradecahydrospiro[cyclopropa[e]pyrrolo[1,2-a][1,4]diazacyclopentadecine-2,3′-pyrano[2,3-c]quinoline]-14a(5H)-carboxamide]
IC50 [1, 3]: 0.004 nM
EC50 (HCV genotype 1b replicon; genotype 1b replicon): 17.4 nM

Cc1nc2ccccc2c2c1O[C@]1(CC2)C[C@H]2C(=O)N[C@]3(C(=O)NS(=O)(=O)C4(C)CC4)C[C@H]3/C=C\CCCCC[C@H](Nc3nccs3)C(=O)N2C1 [Example 360, (2R,6S,12Z,13aS,14aR,16aS)-5′-methyl-N-[(1-methylcyclopropyl)sulfonyl]-5,16-dioxo-6-(1,3-thiazol-2-ylamino)-1,1′,2′,6,7,8,9,10,11,13a,14,15,16,16a-tetradecahydrospiro[cyclopropa[e]pyrrolo[1,2-a][1,4]diazacyclopentadecine-2,3′-pyrano[2,3-c]quinoline]-14a(5H)-carboxamide]
IC50 [1, 2]: 0.143 nM
EC50 (HCV genotype 1b replicon; HCV replicon, genotype 1b): 140 nM

CC(C)COC(=O)N[C@H]1CCCCC/C=C\[C@@H]2C[C@@]2(C(=O)NS(=O)(=O)C2(C)CC2)NC(=O)[C@@H]2C[C@]3(CCc4c(c(C5CC5)nc5ccccc45)O3)CN2C1=O [Example 103, 2-methylpropyl [(2R,6S,12Z,13aS,14aR,16aS)-5′-cyclopropyl-14a-{[(1-methylcyclopropyl)sulfonyl]carbamoyl}-5,16-dioxo-1,1′,2′,5,6,7,8,9,10,11,13a,14,14a,15,16,16a-hexadecahydrospiro[cyclopropa[e]pyrrolo[1,2-a][1,4]diazacyclopentadecine-2,3′-pyrano[2,3-c]quinolin]-6-yl]carbamate]
IC50 [1, 3]: 0.012 nM
EC50 (HCV genotype 1b replicon; genotype 1b replicon): 1.51 nM

COc1ccc2nc(C3CC3)c3c(c2c1)CC[C@]1(C[C@H]2C(=O)N[C@]4(C(=O)NS(=O)(=O)C5(C)CC5)C[C@H]4/C=C\CCCCC[C@H](NC(=O)OC4(C)CCC4)C(=O)N2C1)O3 [Example 152, 1-methylcyclobutyl [(2R,6S,12Z,13aS,14aR,16aS)-5′-cyclopropyl-9′-methoxy-14a-{[(1-methylcyclopropyl)sulfonyl]carbamoyl}-5,16-dioxo-1,1′,2′,5,6,7,8,9,10,11,13a,14,14a,15,16,16a-hexadecahydrospiro[cyclopropa[e]pyrrolo[1,2-a][1,4]diazacyclopentadecine-2,3′-pyrano[2,3-c]quinolin]-6-yl]carbamate]
IC50 [1, 4]: 0.014 nM
EC50 (HCV genotype 1b replicon; genotype 1b replicon, K+ salt): 0.729 nM

COc1ccc2nc(C(F)(F)F)c3c(c2c1)CC[C@]1(C[C@H]2C(=O)N[C@]4(C(=O)NS(=O)(=O)C5(C)CC5)C[C@H]4/C=C\CCCCC[C@H](NC(=O)OC4(C(C)C)CC4)C(=O)N2C1)O3 [Example 449, 1-(propan-2-yl)cyclopropyl [(2R,6S,12Z,13aS,14aR,16aS)-9′-methoxy-14a-{[(1-methylcyclopropyl)sulfonyl]carbamoyl}-5,16-dioxo-5′-(trifluoromethyl)-1,1′,2′,5,6,7,8,9,10,11,13a,14,14a,15,16,16a-hexadecahydrospiro[cyclopropa[e]pyrrolo[1,2-a][1,4]diazacyclopentadecine-2,3′-pyrano[2,3-c]quinolin]-6-yl]carbamate]
IC50 [1, 2]: 0.007 nM
EC50 (HCV genotype 1b replicon; HCV replicon, genotype 1b): 1.39 nM

COc1cccc(N[C@H]2CCCCC/C=C\[C@@H]3C[C@@]3(C(=O)NS(=O)(=O)C3(C)CC3)NC(=O)[C@@H]3C[C@]4(CCc5c(c(C)nc6ccccc56)O4)CN3C2=O)n1 [Example 415, (2R,6S,12Z,13aS,14aR,16aS)-6-[(6-methoxypyridin-2-yl)amino]-5′-methyl-N-[(1-methylcyclopropyl)sulfonyl]-5,16-dioxo-1,1′,2′,6,7,8,9,10,11,13a,14,15,16,16a-tetradecahydrospiro[cyclopropa[e]pyrrolo[1,2-a][1,4]diazacyclopentadecine-2,3′-pyrano[2,3-c]quinoline]-14a(5H)-carboxamide]
IC50 [1, 2]: 0.118 nM
EC50 (HCV genotype 1b replicon; HCV replicon, genotype 1b): 16.3 nM

Source: patent US8987195B2 (priority 2012, dated 2015)
